Source: patent publication US20110070597A1, “Thin-Film Passive Samplers for Detection of Hydrophobic Organic Contaminants and Estrogenicity in Various Environments” (UNIVERSITY OF CONNECTICUT, priority 2009, published 2011)

Format: physicochemical
From the text: The polymer coated glass samplers (POG) and the organic rapid equilibrating (ORE) samplers, 10 and 20, both consisting of a thin film (on the order of ˜1-2 μm) of EVA, were calibrated by experimental determination of EVA-Water partition coefficients and sampling rates. The ORE is comprised of a 1.4 μm EVA coating on a 5.1×7.6 cm titanium plate, while the POG utilizes a thin-film of EVA on a glass fiber filter.
A closed system experiment was used to calibrate the POG and ORE devices. Sampling rates and equilibration times were determined for fourteen PBDE congeners. EVA-Water partitioning coefficients (KEVA-W) were experimentally determined for 5 BDE congeners. A Log KEVA-W−Log KOW (Octanol-Water partitioning coefficient) plot was constructed and used to define Log KEVA-W partitioning coefficients for the 14 BDE congeners examined. Values ranged from 6.39 to 10.6. The experimental design was successful in parameterizing the desired constants. In sum, both samplers were successfully calibrated.
A dichloromethane rinsed 20 gallon fish tank was employed for the tank deployment experimental. Three POGs and three OREs were suspended from a stainless steel frame proximate the top of the tank.
Once dry, the tank was filled with artificial seawater comprising sodium chloride, sodium bicarbonate, magnesium sulfate, and high purity Milli-Q water. A handheld multiparameter instrument (YSI-556) was used to confirm salinity (31 parts per thousand), dissolved oxygen (0.19 mM), and temperature (20° C.) prior to starting the experiment. The tank was fit with a plexiglass lid sealed with polytetrafluoroethylene (PTFE; i.e., Teflon®) and duct tape.
The tank was spiked with 0.2 mL of the PBDE Predominant Congener Mixture in n-nonane from Cambridge Isotope laboratories and allowed to equilibrate for 48 hours. Samplers were removed from refrigeration and allowed to equilibrate to room temperature. 400 mL of water was taken to establish the initial concentration. Seven sets of three samplers were added to the tank. The tank was secured with a lid, PTFE and duct tape, as described above. Four hundred milliliter aliquots of tank water and one sampler set were removed at the following time intervals: 1 hr, 2 hrs, 6 hrs, 12 hrs, 3 days, 12 days, and 32 days. The tank was open to the air in the fume hood for less than 4 minutes during each sampling period. After removal, each sampler set was wrapped in pre-cleaned aluminum foil and placed frozen in an airtight bag at −20° C. until extraction and analysis. Water-side 400 mL aliquots were frozen at −20° C. until extraction and analysis.
The POGs and OREs were extracted for analysis of PBDE concentration.
Extracts were analyzed for BDE congeners 17, 28, 47, 66, 71, 85, 99, 100, 138, 153, 154, 183, 190, and 209 by gas chromatography-mass spectrometry (GC/MS). Masses 79 (PBDEs) and 414 (Mirex) were used for quantification with Masses 81 (PBDEs), 487, 486 (DecaBDE), and 412 (Mirex) acting as confirmation ions. Extracts were identified and quantified by comparison with known concentrations of prepared standard solutions.
Sampling rates were calculated experimentally using Equation 2. The sampling rates varied between sampler types. The differences in sampling rates were likely due to variations in the thickness and heterogeneity versus homogeneity of the thin film coating on the respective plates. Sampling rates (RS(s)) were calculated at 1, 2, or 6 hrs depending upon the shape of the uptake curve.
For Brc1ccc(Oc2ccccc2Br)c(Br)c1 [BDE 17], the “LOG KEVA-W (EVA-water partition coefficient) ORE” value was 6.40 ± 0.08 and the “LOG KEVA-W (EVA-water partition coefficient) POG” value was 6.01 ± 0.07. For Brc1ccc(Oc2ccc(Br)cc2Br)cc1 [BDE 28], the “LOG KEVA-W (EVA-water partition coefficient) ORE” value was 6.38 ± 0.10 and the “LOG KEVA-W (EVA-water partition coefficient) POG” value was 5.90 ± 0.06. With Brc1ccc(Oc2ccc(Br)cc2Br)c(Br)c1 [BDE 47] the “LOG KEVA-W (EVA-water partition coefficient) ORE” value was 6.79 ± 0.10 and the “LOG KEVA-W (EVA-water partition coefficient) POG” value was 6.43 ± 0.07. With Brc1ccc(Oc2ccc(Br)c(Br)c2)c(Br)c1 [BDE 66] the “LOG KEVA-W (EVA-water partition coefficient) ORE” value was 6.66 ± 0.11 and the “LOG KEVA-W (EVA-water partition coefficient) POG” value was 6.25 ± 0.07. For Brc1ccc(Oc2c(Br)cccc2Br)cc1Br [BDE 71], the “LOG KEVA-W (EVA-water partition coefficient) ORE” value was 6.67 ± 0.02 and the “LOG KEVA-W (EVA-water partition coefficient) POG” value was 6.24 ± 0.05.
